This is an account of results in ChEMBL document CHEMBL2040748, “N-4-t-Butylbenzyl 2-(4-methylsulfonylaminophenyl) propanamide TRPV1 antagonists: Structure-activity relationships in the A-region” (Bioorg Med Chem, 2012).

The target in test [1] is T1, Transient receptor potential cation channel subfamily V member 1 (Rattus norvegicus, UniProt O35433). Nature of the test: Displacement of [3H]RTX from rat TRPV1 receptor expressed in CHO cells after 60 mins by scintillation counting. Format: cell-based. (In a radioligand displacement assay an active substance lowers the binding of a labelled ligand.)
The target of test [2] is T2, Transient receptor potential cation channel subfamily V member 1 (Homo sapiens, UniProt Q8NER1). Nature of the test: Antagonist activity at human TRPV1 receptor expressed in CHO cells assessed as decrease in pH-induced intracellular 45Ca2+ uptake after 1 hr by […] analysis. Format: functional, cell-based.
Test [3] deals with T1, Transient receptor potential cation channel subfamily V member 1. Nature of the test: Antagonist activity at rat TRPV1 receptor expressed in CHO cells assessed as decrease in capsaicin-induced intracellular 45Ca2+ uptake after 1 hr by […] analysis. The format is functional, cell-based.
In test [4] the target is T2, Transient receptor potential cation channel subfamily V member 1. Nature of the test: Displacement of [3H]RTX from human TRPV1 receptor expressed in CHO cells after 60 mins by scintillation counting. Format: cell-based.
Test [5] shares this target. The test is described as follows: Antagonist activity at human TRPV1 receptor expressed in CHO cells assessed as decrease in capsaicin-induced intracellular 45Ca2+ uptake after 1 hr by […] analysis. The format is functional, cell-based.
For test [6], the target named is Transient receptor potential cation channel subfamily V member 1 (Rattus norvegicus) (UniProt O35433). The test is described as follows: Antagonist activity at rat TRPV1 receptor expressed in CHO cells assessed as decrease in capsaicin-induced intracellular 45Ca2+ uptake after 1 hr by […] analysis relative to untreated control. Format: functional, cell-based.

By Ki is commonly meant a dissociation constant, usually derived from enzyme kinetics or from competition with a known ligand.

T2 sequence (Q8NER1 whole entry): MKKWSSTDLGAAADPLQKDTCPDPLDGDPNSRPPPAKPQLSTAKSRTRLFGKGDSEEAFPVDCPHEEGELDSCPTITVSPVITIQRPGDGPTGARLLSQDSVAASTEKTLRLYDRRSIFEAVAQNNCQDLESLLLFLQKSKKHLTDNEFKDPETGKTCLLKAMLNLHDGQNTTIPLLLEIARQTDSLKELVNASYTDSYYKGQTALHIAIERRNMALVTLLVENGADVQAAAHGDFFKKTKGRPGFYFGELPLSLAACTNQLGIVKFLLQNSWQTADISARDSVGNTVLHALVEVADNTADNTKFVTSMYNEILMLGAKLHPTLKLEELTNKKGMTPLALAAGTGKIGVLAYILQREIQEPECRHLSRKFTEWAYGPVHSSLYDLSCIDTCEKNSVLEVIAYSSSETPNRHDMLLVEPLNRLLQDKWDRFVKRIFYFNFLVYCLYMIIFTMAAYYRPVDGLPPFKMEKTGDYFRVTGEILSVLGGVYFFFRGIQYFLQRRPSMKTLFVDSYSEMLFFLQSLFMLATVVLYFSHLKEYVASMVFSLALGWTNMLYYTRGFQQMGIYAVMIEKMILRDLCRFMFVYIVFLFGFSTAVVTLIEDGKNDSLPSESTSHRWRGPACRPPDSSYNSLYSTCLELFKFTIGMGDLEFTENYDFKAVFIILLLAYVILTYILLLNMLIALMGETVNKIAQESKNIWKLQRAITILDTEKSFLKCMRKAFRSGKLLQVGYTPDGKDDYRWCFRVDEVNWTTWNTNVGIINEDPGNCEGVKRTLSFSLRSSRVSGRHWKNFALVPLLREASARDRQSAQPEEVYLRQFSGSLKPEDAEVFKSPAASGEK
Chain of Transient receptor potential cation channel subfamily V member 1 (Rattus norvegicus) (O35433 whole entry): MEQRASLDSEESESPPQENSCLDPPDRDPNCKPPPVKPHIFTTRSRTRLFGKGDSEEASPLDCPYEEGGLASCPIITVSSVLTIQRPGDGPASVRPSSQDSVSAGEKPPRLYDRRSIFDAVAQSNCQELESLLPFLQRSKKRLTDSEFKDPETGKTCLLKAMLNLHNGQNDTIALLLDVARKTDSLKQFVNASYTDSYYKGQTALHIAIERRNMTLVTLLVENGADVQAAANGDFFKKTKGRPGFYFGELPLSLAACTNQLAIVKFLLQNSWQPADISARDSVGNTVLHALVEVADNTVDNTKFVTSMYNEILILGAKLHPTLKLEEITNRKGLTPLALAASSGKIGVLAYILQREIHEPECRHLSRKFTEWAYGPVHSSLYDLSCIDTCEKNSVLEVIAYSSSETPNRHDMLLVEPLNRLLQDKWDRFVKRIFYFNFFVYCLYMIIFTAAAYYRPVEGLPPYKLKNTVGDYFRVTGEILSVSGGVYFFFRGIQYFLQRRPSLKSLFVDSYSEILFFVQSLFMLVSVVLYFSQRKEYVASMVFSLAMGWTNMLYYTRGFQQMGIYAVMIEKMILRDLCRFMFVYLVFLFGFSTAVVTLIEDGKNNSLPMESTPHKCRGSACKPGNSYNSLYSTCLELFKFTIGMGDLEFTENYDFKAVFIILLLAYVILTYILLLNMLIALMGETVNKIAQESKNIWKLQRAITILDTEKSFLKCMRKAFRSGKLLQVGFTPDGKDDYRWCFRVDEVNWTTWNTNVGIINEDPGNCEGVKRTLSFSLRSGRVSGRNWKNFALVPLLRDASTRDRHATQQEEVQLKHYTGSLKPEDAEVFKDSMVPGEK
T1 sequence (O35433 whole entry): as above

Regarding `CC(C(=O)NCc1ccc(C(C)(C)C)cc1)c1ccc(NS(C)(=O)=O)c(F)c1` (racemic), the inhibition constant Ki in test [1] (read-out: Ki) is 46.2 nM; in test [2], 12.7 nM; in test [3], 7.6 nM; in test [4] it was 89 nM; in test [5], 5.1 nM.
Turning to `C[C@H](C(=O)NCc1ccc(C(C)(C)C)cc1)c1ccc(NS(C)(=O)=O)c(F)c1`, the inhibitory constant (Ki) turned out to be 24.4 nM in test [1] (read-out: Ki); 8.3 nM in test [2]; 4.16 nM in test [3]; 15.8 nM in test [4]; 0.49 nM in test [5].
For `C[C@@H](C(=O)NCc1ccc(C(C)(C)C)cc1)c1ccc(NS(C)(=O)=O)c(F)c1`, in that order: 750 nM, 440 nM, 186 nM, 2590 nM and 217 nM.
As for `Cc1cc(C(C)C(=O)NCc2ccc(C(C)(C)C)cc2)ccc1NS(C)(=O)=O` (centres undefined), the inhibition constant (Ki) in test [1] (read-out: Ki) is 32.8 nM; in test [3] it was 18.9 nM.
In the case of `CC(C(=O)NCc1ccc(C(C)(C)C)cc1)c1ccc(NS(C)(=O)=O)c(N2CCOCC2)c1` (centres undefined), the Ki entry in test [1] (cho) is given as “Active”.
For `CC(C(=O)NCc1ccc(C(C)(C)C)cc1)c1ccc(NS(C)(=O)=O)c(N2CCCCC2)c1` (centres undefined), the Ki result in test [1] (cho) is listed as “Active”.
As for `CC(C(=O)NCc1ccc(C(C)(C)C)cc1)c1ccc(NS(C)(=O)=O)c(C(=O)OC(C)(C)C)c1` (centres undefined), the Efficacy in test [6] turned out to be 16%.
The same measure, in the same setting: under `COc1cc(CNC(=S)NCc2ccc(C(C)(C)C)cc2)ccc1NS(C)(=O)=O` stands 84%.
Regarding `CC(C(=O)NCc1ccc(C(C)(C)C)cc1)c1ccc(NS(C)(=O)=O)c(N2CCN(C(=O)OC(C)(C)C)CC2)c1` (centres undefined), the inhibition constant Ki in test [1] (read-out: Ki) worked out at 7000 nM. For the same molecule, in test [6], the Efficacy turned out to be 13%.
With `CC(C(=O)NCc1ccc(C(C)(C)C)cc1)c1ccc(NS(C)(=O)=O)c(C(=O)NCc2ccccc2)c1` (centres undefined), the Efficacy in test [6] was 23%.
